This experiment has as its system A. baumannii. The experiment is described as follows: H2DCF-DA assay of ROS production. The format is cell-based, Acinetobacter baumannii. The settings on record: MIC (50 μg/mL) and MBC (200 μg/mL), 10 hours. How it is done: To further examine a mode of action of octopromycin related to endogenous ROS production in A. baumannii by octopromycin, H2DCF-DA assay was performed. The accumulation of ROS in A. baumannii was quantified using fluorescent probe carboxy-H2DCF-DA (Invitrogen, USA). An A. baumannii culture solution (OD-0.25, 5×10^6 CFU/mL) was treated with octopromycin (MIC; 50 μg/mL and MBC; 200 μg/mL) and cultured at 25° C. for 10 hours, and then, cells were harvested by centrifugation at 5000 rpm for 2 minutes. To detect ROS levels, the cells were stained with H2DCF-DA (100 μg/mL) and cultured at room temperature (24±1° C.) for 30 minutes and then centrifuged at 5000 rpm for 2 minutes. The cells were washed with ×1 PBS and dichloro-fluorescein (DCF) fluorescence was measured using CLSM (LSMS Live Configuration Variotwo VRGB, Zeiss, Germany) at an excitation wavelength of 488 nm and an emission wavelength of 535 nm.

The record followed here is patent US20230321187A1, “OCTOPUS-DERIVED PEPTIDE OCTOPROMYCIN HAVING ANTIBACTERIAL AND ANTI-BIOFILM ACTIVITY AGAINST ACINETOBACTER BAUMANNII” (priority 2020, published 2023).

“Also recorded” adds a separate entry of the source. Where no end group is shown, it is not given here.

Consider “RRLIRTDTGPIIYDYFKDQLLKKGMVILRESMKNLKGM [octopromycin]”, for which the ROS level result is on record as “increased in a concentration-dependent manner; also recorded: increased the production of reactive oxygen species”.
